For one experiment, the system named is TNF-α. As to the kind of experiment: TNF-α in serum after CLP treatment by ELISA. The note with it: serum at 18 hours, treated at 6 and 16 hours after CLP; FIG. 10. It counts as in vivo, mouse. On the procedure: After CLP treatment, the inflammatory cytokines TNF-α and IL-6 were analyzed by ELISA.
Specifically, after treating the compound of formula (1a-1) at 6 and 16 hours after CLP treatment, mouse blood was collected at 18 hours and allowed to stand at room temperature for 1 hour, then centrifuged at 3000 rpm for 10 minutes to obtain serum to analyze the amount of TNF-α and IL-6.

Another experiment concerns pluripotent stem cells. The experiment in a line: Differentiation of pluripotent stem cells into dopaminergic neurons. The note with it: FIG. 5. The class given is cell-based. On the procedure: Pluripotent stem cells were seeded in Aggre Well plates (stemcell) at 5,000 cells/microwell and cultured for 5 days in E6 medium (GIBCO) to induce embryonic body (EB) formation. For neural rosette formation, EBs were seeded into 35 mm dishes in groups of 30 and cultured for 10 days in N2bF medium. The 35 mm dishes were used after being coated with 15 μg/ml of poly-L-ornithine (sigma) and 1 μg/ml of fibronectin (sigma). The N2Bf medium composition was DMEM/F12 (GIBCO), N2 supplement (stemcell) 1×, 10% NEAA (GIBCO), 55 µM beta-Mercaptoethanol (GIBCO), bFGF (peprotech) 20 ng/ml. For the formation of spherical neural masses (SNMs), rosette masses were sliced and cultured in petri dishes with N2bF medium. SNMs were no larger than 500 UM in size and were sliced and cultured for 3 to 4 passages. After subculture of SNM, the clumps were broken into small pieces using a tungsten mesh (Nilaco) for the neural progenitor cell (NPC) culture step, and then attached to a PLO/FN-coated dish and cultured in N2bF medium. […]
The effect of the compound of formula (1a-1) on differentiation into neurons was evaluated by comparing the expression of tyrosine hydroxylase (TH) and dopamine transporter (DAT) depending on the presence or absence of treatment with the compound of formula (1a-1).

Experiment [1] has as its system amyloid beta monomer (monomeric Aβ, mAβ). As to the kind of experiment: Expression of mAβ in brain of AD-induced animal model by fluorescence microscopy. Conditions: mouse brain, 1 mg/kg i.p. once every 3 days for 2 weeks, FIG. 3. The class given is in vivo. On the procedure: To determine the therapeutic effect on Alzheimer's Disease (AD), the effects on amyloid beta monomer (monomeric Aβ, mAβ) and Tau protein, which are biomarkers of AD, were analyzed in an AD-induced animal model.
APP/PS/Tau transgenic mice were used as an AD-induced animal model. The compound of formula (1a-1) was administered intraperitoneally once every 3 days at a concentration of 1 mg/kg to 12-week-old transgenic mice for 2 weeks, and the expression of mAβ and Tau proteins in the mouse brain was measured after 1 and 4 weeks. After anesthetizing the mouse, the cervical region was incised with a dissecting tool, and then the occipital region was incised to remove both sides of the skull. The brain was washed with phosphate buffered saline (PBS) and fixed with 4% paraformaldehyde (Sigma, St Louis, MO, USA) for 12 hours at 4 °C. These were cut to a thickness of approximately 10 μm using a vibratome, and hippocampus and cortex sections were collected and placed in 24 wells. PBS was added to the wells containing the fixed tissue sections, and fluorescent nanoparticles (QD565, red fluorescence) conjugated with anti-amyloid antibodies and anti-Tau antibodies (Santa Cruz, USA) were added to each 2 μM, and reacted at 4 °C for 12 hours. The expression of mAβ and Tau was confirmed by fluorescence microscopy.

We go through one molecule from patent publication US20260365684A1, “PHYTOSPHINGOSINE-3,4-CYCLICPHOSPHATE COMPOUND AND PHARMACEUTICAL COMPOSITION COMPRISING THE SAME” (AXCESO BIOPHARMA CO., LTD., priority 2022, published 2026).

Regarding `CCCCCCCCCCCCCC[C@H]1OP(=O)(O)O[C@H]1[C@@H](N)CO.Cl` [formula (1a-1), (4S,5R)-4-((S)-1-amino-2-hydroxyethyl)-2-hydroxy-5-tetradecyl-1,3,2-dioxaphosphoran-2-oxide hydrochloride], the “amount of TNF-α” value in the experiment with TNF-α was “significantly decreased”. Also, the “differentiation of pluripotent stem cells into dopaminergic neurons” value with pluripotent stem cells is “can promote the differentiation of pluripotent stem cells into dopaminergic neurons”. Besides, the “red fluorescence for mAβ” value in experiment [1] (1 week and 4 weeks after) was “negligible red fluorescence for mAβ and Tau”. For the same molecule, the expression of amyloid result in experiment [1] is given as “significantly reduced”.
